In patent publication US20260226073A1 (AURIGENE ONCOLOGY LIMITED, priority 2023, published 2026):

Experiments:
[1] = target: T1, human recombinant CBL-b (human Biotin CBL-b recombinant protein a.a. 39-426) (Homo sapiens, UniProt Q13191); experiment: Biochemical assay for CBL-b inhibition (ligand displacement TR-FRET); format: binding; conditions: 50 nM CBL-b, 0.3 μM Bodipy FL-Probe, read-out: IC50 (CBL-b inhibition, group)
T1 construct: human Biotin CBL-b recombinant protein a.a; 39-426; Biotin (biotinylated); made in house
T1 sequence (Q13191 39-426): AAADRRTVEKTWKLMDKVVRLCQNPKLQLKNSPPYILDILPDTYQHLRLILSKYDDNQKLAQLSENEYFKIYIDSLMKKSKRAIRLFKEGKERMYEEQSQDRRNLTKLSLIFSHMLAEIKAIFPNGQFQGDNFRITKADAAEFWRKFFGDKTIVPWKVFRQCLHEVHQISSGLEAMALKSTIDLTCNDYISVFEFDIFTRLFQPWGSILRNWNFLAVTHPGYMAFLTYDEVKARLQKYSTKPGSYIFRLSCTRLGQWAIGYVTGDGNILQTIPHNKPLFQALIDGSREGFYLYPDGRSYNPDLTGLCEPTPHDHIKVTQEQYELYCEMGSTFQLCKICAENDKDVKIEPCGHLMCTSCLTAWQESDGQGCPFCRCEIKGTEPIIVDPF
How it was run: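 Ligand-displacement TR-FRET: 0.3 μM Bodipy FL probe competes with compound for 50 nM biotin-CBL-b (aa 39-426) after a 60 min RT compound pre-incubation; terbium-streptavidin detection, 60 min each step. Dose-response sigmoidal fitting gave IC50 and % maximum inhibition.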

[2] = test system: NFAT signaling pathway in Jurkat NFAT reporter cells; experiment: Jurkat NFAT reporter assay; format: cell-based; conditions: Homo sapiens, 30 min with compound, then soluble anti-human CD3/CD28 antibody for 6 hours, luciferase readout, read-out: EC50 (Group)
How it was run: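 Results are expressed as fold change relative to stimulated, inhibitor-free cells. Stimulation was 6 h with soluble anti-human CD3/CD28 antibody after a 30-min exposure of 1×10^5 NFAT-RE luciferase Jurkat reporter cells per well to the Cbl-b inhibitor; signal read by Bio-Glo bioluminescence.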

SMILES	IC50 [1] [nM]	EC50 [2] [nM]
CC(NCC1CCC1)c1cc(Cl)nc(N2Cc3ccc(-c4ccc(Cl)cc4-c4nncn4C)cc3C2=O)c1 (stereo not shown) [Compound 107, 6-(4-Chloro-2-(4-methyl-4H-1,2,4-triazol-3-yl)phenyl)-2-(6-chloro-4-(1-((cyclo-butylmethyl)amino)ethyl)pyridin-2-yl)isoindolin-1-one]	< 80	< 300
C[C@H]1CCCN(Cc2cc(Cl)nc(N3Cc4ccc(-c5ccc(C#N)cc5-c5nncn5C)cc4C3=O)c2)C1 [Compound 112, (S)-4-(2-(6-Chloro-4-((3-methylpiperidin-1-yl)methyl)pyridin-2-yl)-3-oxoiso-indolin-5-yl)-3-(4-methyl-4H-1,2,4-triazol-3-yl)benzonitrile]	< 80	< 300
C[C@H]1CCCN(Cc2cc(Cl)nc(N3Cc4ccc(-c5ccc(Cl)cc5-c5nncn5C)cc4C3=O)c2)C1 [Compound 113, (S)-6-(4-Chloro-2-(4-methyl-4H-1,2,4-triazol-3-yl)phenyl)-2-(6-chloro-4-((3-methylpiperidin-1-yl)methyl)pyridin-2-yl)isoindolin-1-one]	< 80	< 300
Cn1cnnc1-c1ccccc1-c1ccc2c(c1)C(=O)N(c1cc(CNCCC(F)(F)F)cc(Cl)n1)C2 [Compound 116, 2-(6-Chloro-4-(((3,3,3-trifluoropropyl)amino)methyl)pyridin-2-yl)-6-(2-(4-methyl-4H-1,2,4-triazol-3-yl)phenyl)isoindolin-1-one]	< 80	1000 to 10000
C[C@@H]1C[C@H](C)CN(Cc2cc(N3Cc4ccc(-c5ccccc5-c5nncn5C)cc4C3=O)nc(C(F)(F)F)c2)C1 [Compound 117, 2-(4-(((3S,5R)-3,5-Dimethylpiperidin-1-yl)methyl)-6-(trifluoromethyl)pyridin-2-yl)-6-(2-(4-methyl-4H-1,2,4-triazol-3-yl)phenyl)isoindolin-1-one]	80 to 300	1000 to 10000
Cn1cnnc1-c1cc(Cl)ccc1-c1ccc2c(c1)C(=O)N(c1cc(Cl)cc(CNCC3CC3)c1)C2 [Compound 119, 6-(4-Chloro-2-(4-methyl-4H-1,2,4-triazol-3-yl)phenyl)-2-(3-chloro-5-(((cyclo-propylmethyl)amino)methyl)phenyl)isoindolin-1-one]	< 80	300 to 1000
CC(NCC1CC(F)(F)C1)c1cc(Cl)nc(N2Cc3ccc(-c4ccc(Cl)cc4-c4nncn4C)cc3C2=O)c1 (stereo not shown) [Compound 121, 6-(4-Chloro-2-(4-methyl-4H-1,2,4-triazol-3-yl)phenyl)-2-(6-chloro-4-(1-(((3,3-difluorocyclobutyl)methyl)amino)ethyl)pyridin-2-yl)isoindolin-1-one]	< 80	< 300
Cc1cc(CNC(C)C2CC2)cc(N2Cc3ccc(-c4ccc(Cl)cc4-c4nncn4C)cc3C2=O)n1 (stereo not shown) [Compound 122, 6-(4-Chloro-2-(4-methyl-4H-1,2,4-triazol-3-yl)phenyl)-2-(4-(((1-cyclopropyl-ethyl)amino)methyl)-6-methylpyridin-2-yl)isoindolin-1-one]	< 80	< 300
Cc1cc(CNCC2CC2)cc(N2Cc3ccc(-c4ccc(F)cc4-c4nncn4C)cc3C2=O)n1 [Compound 127, 2-(4-(((Cyclopropylmethyl)amino)methyl)-6-methylpyridin-2-yl)-6-(4-fluoro-2-(4-methyl-4H-1,2,4-triazol-3-yl)phenyl)isoindolin-1-one]	< 80	< 300
CC(NCc1cc(Cl)nc(N2Cc3ccc(C4(Cc5nncn5C)COC4)cc3C2=O)c1)C1CC1 (stereo not shown) [Compound 131, 2-(6-Chloro-4-(((1-cyclopropylethyl)amino)methyl)pyridin-2-yl)-6-(3-((4-methyl-4H-1,2,4-triazol-3-yl)methyl)oxetan-3-yl)isoindolin-1-one]	< 80	< 300
Cn1cnnc1-c1cc(Cl)ccc1-c1ccc2c(c1)C(=O)N(c1cc(CNCC3CC3)cc(C(F)(F)F)n1)C2 [Compound 132, 6-(4-Chloro-2-(4-methyl-4H-1,2,4-triazol-3-yl)phenyl)-2-(4-(((cyclopropylmethyl)amino)methyl)-6-(trifluoromethyl)pyridin-2-yl)isoindolin-1-one]	< 80	< 300
Cc1nc(CNCC2CC2)cc(N2Cc3ccc(-c4ccc(F)cc4-c4nncn4C)cc3C2=O)n1 [Compound 133, 2-(6-(((Cyclopropylmethyl)amino)methyl)-2-methylpyrimidin-4-yl)-6-(4-fluoro-2-(4-methyl-4H-1,2,4-triazol-3-yl)phenyl)isoindolin-1-one]	< 80	1000 to 10000
Cc1cc(CNCC2CCC2)cc(N2Cc3ccc(-c4ccc(F)cc4-c4nncn4C)cc3C2=O)n1 [Compound 134, 2-(4-(((Cyclobutylmethyl)amino)methyl)-6-methylpyridin-2-yl)-6-(4-fluoro-2-(4-methyl-4H-1,2,4-triazol-3-yl)phenyl)isoindolin-1-one]	< 80	< 300
C[C@@H]1C[C@H](C)CN(Cc2cc(N3Cc4ccc(C5(Cc6nncn6C)CC(C#N)C5)cc4C3=O)nc(C(F)(F)F)c2)C1 (stereo partly shown) [Compound 143]	< 80	< 300
Cn1cnnc1CC1(c2ccc3c(c2)C(=O)N(c2cc(CNCC4CCC4)cc(Cl)n2)C3)COC1 [Compound 144, 2-(6-Chloro-4-(((cyclobutylmethyl)amino)methyl)pyridin-2-yl)-6-(3-((4-methyl-4H-1,2,4-triazol-3-yl)methyl)oxetan-3-yl)isoindolin-1-one]	< 80	< 300
Cn1cnnc1CC1(c2ccc3c(c2)C(=O)N(c2cc(CNCC4CC4)cc(Cl)n2)C3)CCC1 [Compound 145, 2-(6-Chloro-4-(((cyclopropylmethyl)amino)methyl)pyridin-2-yl)-6-(1-((4-methyl-4H-1,2,4-triazol-3-yl)methyl)cyclobutyl)isoindolin-1-one]	< 80	< 300
Cc1cc(CNCC2CC2)cc(N2Cc3ccc(C4(Cc5nncn5C)COC4)cc3C2=O)n1 [Compound 147, 2-(4-(((Cyclopropylmethyl)amino)methyl)-6-methylpyridin-2-yl)-6-(3-((4-methyl-4H-1,2,4-triazol-3-yl)methyl)oxetan-3-yl)isoindolin-1-one]	< 80	300 to 1000
CCC1CCCN(Cc2cc(Cl)nc(N3Cc4ccc(C5(Cc6nncn6C)COC5)cc4C3=O)c2)C1 (stereo not shown) [Compound 148, 2-(6-Chloro-4-((3-ethylpiperidin-1-yl)methyl)pyridin-2-yl)-6-(3-((4-methyl-4H-1,2,4-triazol-3-yl)methyl)oxetan-3-yl)isoindolin-1-one]	< 80	< 300
Cn1cnnc1CC1(c2ccc3c(c2)C(=O)N(c2cc(CNCCC(F)(F)F)cc(Cl)n2)C3)CCC1 [Compound 151, 2-(6-Chloro-4-(((3,3,3-trifluoropropyl)amino)methyl)pyridin-2-yl)-6-(1-((4-methyl-4H-1,2,4-triazol-3-yl)methyl)cyclobutyl)isoindolin-1-one]	< 80	< 300
C[C@H]1CCCN(Cc2cc(Cl)nc(N3Cc4ccc(C5(Cc6nncn6C)CC(F)(F)C5)cc4C3=O)c2)C1 [Compound 152, (S)-2-(6-Chloro-4-((3-methylpiperidin-1-yl)methyl)pyridin-2-yl)-6-(3,3-difluoro-1-((4-methyl-4H-1,2,4-triazol-3-yl)methyl)cyclobutyl)isoindolin-1-one]	< 80	< 300
